Reference: paper PMC5482243 (Investigative Ophthalmology & Visual Science, 2017)
Read-outs that look alike come from different tables or passages of the source.

Assays:
Assay in all cases: β-arrestin recruitment assay
Type in all cases: cell-based
[1] = biological target: T1, GPR143 (pm-GPR143) (Homo sapiens, UniProt P51810, E330A/L223A/L224A/W329A)
[2] = biological target: T1, GPR143 (pm-GPR143); remark: listed apart in the source
[3] = biological target: GPR143 (wt-GPR143) (Homo sapiens, UniProt P51810)
GPR143 (wt-GPR143), sequence (P51810 whole entry): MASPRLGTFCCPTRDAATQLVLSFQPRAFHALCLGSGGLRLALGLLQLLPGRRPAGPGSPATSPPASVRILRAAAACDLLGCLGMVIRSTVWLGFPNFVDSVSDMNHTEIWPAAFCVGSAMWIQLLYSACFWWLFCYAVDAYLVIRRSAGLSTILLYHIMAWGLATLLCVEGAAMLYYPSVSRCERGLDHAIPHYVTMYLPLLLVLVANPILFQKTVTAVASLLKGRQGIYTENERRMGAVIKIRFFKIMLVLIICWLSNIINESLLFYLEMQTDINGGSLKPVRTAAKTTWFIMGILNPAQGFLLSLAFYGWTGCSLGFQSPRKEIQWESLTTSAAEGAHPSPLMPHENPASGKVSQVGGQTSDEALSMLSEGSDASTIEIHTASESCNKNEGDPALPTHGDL

T1 sequence (P51810 whole entry L223A/L224A/W329A/E330A): as the sequence (P51810 whole entry) above, with L223A, L224A, W329A, E330A counted along it

Row | SMILES | EC50 [1] [µM] | EC50 [2] [µM] | EC50 [3] [µM]
1 | O=C(Nc1ccc([N+](=O)[O-])cc1Cl)c1cc(Cl)ccc1O [niclosamide] | 3.4 ± 1.11 |  | 
2 | CCOc1ccc2nc3cc(N)ccc3c(N)c2c1 [ethacridine lactate] | 26.1 ± 1.03 |  | 
3 | O=c1[nH]c2ccccc2n1C1CCN(CCCC(c2ccc(F)cc2)c2ccc(F)cc2)CC1 [pimozide] |  | 2.72 ± 1.17 | 4.62 ± 1.37
